Measured values published in paper doi:10.1101/2021.04.29.441652v1 (biorxiv, 2021).

Biological target: human σ2 receptor (TMEM97) (Homo sapiens, UniProt Q5BJF2)
Assay: biochemical
Type: Expi293 membranes
Details: read-out: % of control remaining

Sequence of human σ2 receptor (TMEM97) (Q5BJF2 whole entry): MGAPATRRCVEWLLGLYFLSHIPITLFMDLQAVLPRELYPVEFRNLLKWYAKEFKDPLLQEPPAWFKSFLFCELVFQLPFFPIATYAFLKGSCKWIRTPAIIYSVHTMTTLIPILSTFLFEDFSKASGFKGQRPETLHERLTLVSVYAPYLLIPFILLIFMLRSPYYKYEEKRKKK

SMILES | remaining activity at 1 µM
CC(C)CN1CCC(NC(=O)NNC(=O)C(=O)NC2CC2)CC1 [ZINC000045463977] | 107%
CCCn1c(C)cc(/C=C(/C#N)C(=O)NCCN(C)Cc2ccccc2)c1C [ZINC000064804934] | 85%
CC[C@@H](C)NC(=O)[C@@H](C)N1CCC(c2c[nH]c3ccccc23)CC1 [ZINC000073649189] | 74.2%
C[C@H](C(=O)NCc1cc(Br)cs1)N1CCCCCC1 [ZINC000074484650] | 86.9%
c1cncc(-c2nc(N3CCC[C@H](N4CCCC4)C3)c3ccccc3n2)c1 [ZINC000076836015] | 60.5%
Cc1noc(-c2cccnc2NC2CCC(N3CCCCC3)CC2)n1 (stereo not shown) [ZINC000080247921] | 24.7%
c1ccc(-c2csc(CN3CCC4(C3)OCCO4)c2)cc1 [ZINC000093013680] | 89.6%
CC1CCC(N2CCN(CCOC(C)C)CC2)CC1 (stereo not shown) [ZINC000115566238] | 18.2%
O=C(Nc1cccc(OC(F)(F)F)c1)C(=O)N1CCC[C@@H](N2CCCC2)CC1 [ZINC000120571916] | 17.7%
N#Cc1csc(CN2CCC[C@H]2Cc2ccccc2)c1 [ZINC000124982852] | 89.7%
COc1ccccc1O[C@H](C)CN[C@@H](C)c1ccccc1OC [ZINC000129576345] | 14.2%
CN1CCN(c2ncc(CN3CCN(CC4CC4)CC3)cn2)CC1 [ZINC000130668661] | 68.6%
C[C@H](Cn1cc(Br)cn1)NCc1cn2cc(Cl)ccc2n1 [ZINC000131571127] | 76.6%
CN(C(=O)C[C@@H]1CSCCN1)[C@@H]1CCCN(c2cccnn2)C1 [ZINC000133744458] | 65.7%
C[C@@H](Cn1cc(Br)cn1)NCCOc1ccc2c(c1)OCO2 [ZINC000133991118] | 65.4%
O=C(CCc1cc(Br)ccc1F)N1CC[C@@H](CN2CCCC2)C1 [ZINC000135482356] | 21.7%
O=C(NCc1ccc(F)cc1C(F)(F)F)[C@@H]1CC12CCNCC2 [ZINC000136880129] | 53.9%
COC(=O)[C@@H](C)CS(=O)(=O)N[C@@H]1CCN(CC2CCCC2)C1 [ZINC000152090354] | 44.7%
O=C(CN1CC[C@]2(CCOC2)C1)N[C@@H](Cc1ccccc1)c1ccccc1 [ZINC000153400973] | 99.4%
Cc1cc(C(C)(C)C)ccc1OC[C@@H](O)CN1CC[C@]2(CCOC2)C1 [ZINC000153451054] | 17.2%
C[C@H](N[C@@H](C)CN1CCN(C)CC1)c1ccc(-c2ccccc2)o1 [ZINC000155112667] | 33.8%
CS[C@@H]1CCC[C@H](NC(=O)NC2CCN([C@@H]3CCCC[C@@H]3O)CC2)C1 [ZINC000155998528] | 30.9%
C[C@H]1C[C@@H](NC(=O)C(=O)Nc2cnn(CC(F)F)c2)CN1C1CC1 [ZINC000158577469] | 111%
CC(C)[C@H](C(=O)NC[C@H](C[C@@H](C)O)c1ccccc1)N1CCCCC1 [ZINC000159130997] | 108%
FC(F)(F)c1ccc(-c2nc(CN3CC[C@H](N4CCCC4)C3)cs2)cc1 [ZINC000170742095] | 29.7%
O=C(Nc1ccc2ncsc2c1)C(=O)N1CCCN(C2CCCC2)CC1 [ZINC000172648663] | 96.3%
COC(=O)[C@@H](NCC[C@H](C)N(C)Cc1ccccc1)c1cccc(C#N)c1 [ZINC000176805277] | 41.6%
C[C@H](c1ccccn1)N1CC=C(c2ccc(O)cc2)CC1 [ZINC000176995469] | 61.4%
COc1ccc(Br)cc1C/N=C1/NC[C@@H](C)N1 [ZINC000262658947] | 45.4%

The remaining lines, values ahead:

remaining activity at 1 µM | SMILES
111% | O=C1Nc2ccccc2C12CCC(NCC1(O)CCOCC1)CC2 (stereo not shown) [ZINC000178638284]
34.6% | CCN(CC)[C@H]1CCN(Cc2ncc(Cl)cc2Cl)C1 [ZINC000182372239]
98% | C[C@H](CCNC(=O)N1CCO[C@H]([C@@H]2CCCO2)C1)N1CCCCC1 [ZINC000182663590]
36.1% | Cc1ccc([N+](=O)[O-])cc1[C@H](C)N1C[C@H]2CCC[C@@H]2C1 [ZINC000182842742]
95.3% | N#Cc1ccccc1NC(=O)CCN1CCC(O)(c2c(F)cccc2F)CC1 [ZINC000186482223]
0.9% | C[C@H](Cn1ncc2ccccc2c1=O)N[C@H]1CC[C@H](Cc2ccccc2)C1 [ZINC000188287346]
106% | O=C(NCCc1ccc(F)c(Br)c1)[C@H]1C[C@H](F)CN1 [ZINC000188412270]
52.9% | O=C1Nc2ccccc2CC[C@H]1N1CC[C@@H](COCc2ccccc2)C1 [ZINC000192043753]
89% | COc1ccc2ccccc2c1-c1cc(CN2CCN(C[C@@H](C)O)C[C@H]2C)on1 [ZINC000192810020]
109% | CC(C)(C)N1CCC(NC(=O)c2ncccc2Br)CC1 [ZINC000194878845]
113% | Cc1ccccc1NC(=O)CN1CCC[C@@H]1C[C@H](C)O [ZINC000228149300]
89% | N[C@@H](CC(=O)Nc1cccc(C(=O)N2CCCC2)c1)c1ccccc1 [ZINC000237909071]
114% | C[C@@H]1CCCN1CC(=O)NCC(=O)N[C@H](C)c1ccc(F)cc1 [ZINC000245453841]
98.5% | CC[C@H](C)CNC[C@H]1CCC[C@H]1NS(C)(=O)=O [ZINC000245533477]
72.6% | CCN(C[C@@H]1CCN(Cc2ccccc2)C1)C(=O)[C@H]1CC(=O)N(C2CCCC2)C1 [ZINC000246894550]
61.2% | COC(=O)C[C@H]1CCCN1C[C@@H](O)Cc1ccc(C(F)(F)F)cc1 [ZINC000247001079]
73% | O=C1[C@H](N2C[C@@H]3CCC[C@H]3C2)CCN1c1ccccc1Cl [ZINC000247015101]
104% | CN1CCC[C@@H]2CN(Cn3ccc(-c4ccc(Br)cc4)n3)CC[C@H]21 [ZINC000247147334]
87.4% | CN(C[C@@H](O)CCc1ccccc1)[C@H]1CCN(c2ccccc2F)C1=O [ZINC000248559983]
103% | C[C@H]1CCN(CC#Cc2cccc(Cl)c2)[C@H]1CO [ZINC000248917461]
30.5% | O[C@]1(CN[C@@H]2CC[C@@H](Cc3ccccc3)C2)CCSC1 [ZINC000249076038]
56.1% | C[C@H]1CN/C(=N/Cc2cccc(OCc3ccccc3)c2)N1 [ZINC000261552362]
108% | C=CCOCC(=O)N(CCN)CCc1ccccc1 [ZINC000261774189]
6.4% | C=C(C)CN/C(N)=N/[C@H]1C[C@H](c2cccc(F)c2)C1 [ZINC000262856881]
83.4% | Cc1ccc(NC(=O)CN2CCC[C@@H](C3OCCO3)C2)cc1Cl [ZINC000263644082]
102% | COC1CCC(N(C)CC(=O)Nc2ccc3ccccc3c2)CC1 (stereo not shown) [ZINC000265181994]
97.5% | Cc1cccnc1[C@H](NC(=O)N1CCN(C2CCC2)CC1)C(C)C [ZINC000265281429]
11.1% | N/C(=N\Cc1cccc2c1OCCCO2)NC1CCCC1 [ZINC000269280100]
121% | COCC1(O)CCN(C[C@@H](O)Cn2cnc3cc(C)c(C)cc32)CC1 [ZINC000270395954]
